The assay has as its system BJAB cells. Put plainly: Fc:FasL-induced apoptosis with CD74-derived peptides. It is filed as cell-based. The conditions noted are these: after 24 hours, compared to buffer- and unrelated peptide-treated cells. From the text: A membrane proximal region of CD74-derived peptides disrupts CD74-Fas complexes. […] The CH-11 binding site was mapped to the membrane-proximal CRD3-domain of Fas.^10 We thus predicted that the membrane-proximal region of CD74 may be involved in the interaction with Fas. We designed four 20 amino acids long peptides with five amino acid overlaps spanning this region of CD74 (FIG. 16A).
The goal of this example was to design and identify peptides that compete with the Fas-CD74 complex in order to enhance Fas-mediated apoptosis. […] In order to better define competing peptides and peptides with apoptosis activity, we tested shorter peptides. We incubated seven amino acid length peptides (7mer 1, 7mer 2, and 7mer3) with BJAB cells and then stimulated apoptosis using recombinant Fas ligand (Fc:FasL).
Take DKLTVTS [7mer 3]: the “Fas ligand-induced apoptosis (7mer peptides)” value (“Fas ligand-induced apoptosis” for short) is listed as “significantly enhanced levels of Fas ligand-induced apoptosis”. Turning to GRLDKLT [7mer 2], the “Fas ligand-induced apoptosis” value is reported as “significantly enhanced levels of Fas ligand-induced apoptosis”. With QQQGRLD [7mer 1], the “Fas ligand-induced apoptosis” value is “significantly enhanced levels of Fas ligand-induced apoptosis”.

The record behind these values is patent US20100266577A1, “Method of Cancer Treatment with Antagonists of FAS Inhibitors” (priority 2007, published 2010).
